# Measured values published in patent US10799442B2, “Compounds useful in the treatment and/or care of the skin, hair, nails, and/or mucous membranes” (LUBRIZOL ADVANCED MATERIALS, INC., priority 2015, dated 2020).
# Assays:
# Keratin 10 = test: Keratin expression in reconstructed human epidermal tissue (RHE), immunohistochemistry (Keratin 10); assay type: cell-based; settings: Keratin 10 immunofluorescence, 10 μg/ml, 48 hours
# Description: The human epidermis continuously renews itself by a process of proliferation and differentiation of keratinocytes. Basal epidermal stem cells proliferate and the differentiation process begins above the basal layer, whereby the differentiating keratinocytes slowly move outward from the basal membrane, migrate through the epidermis, and undergo terminal differentiation culminating in fully differentiated dead cells on the surface. The process is a dynamic flux so that surface cells are continuously sloughed and replaced by inner cells differentiating and moving outward. […] To study the ability of the peptides of the invention to recover the basal keratinocyte state, the expression of Keratins 10 and 14 is evaluated by immunohistochemistry in a three-dimensional culture system, Reconstructed Human Epidermal Tissue (RHE), that reproduces in vitro the histological organization of human epidermis in situ. […]
# The expression of Keratins 10 and 14 is evaluated by immunohistochemistry with a specific primary antibody and a fluorescently labelled secondary antibody. […] At the end of the incubation, slides are washed with 0.2% solution of Tween 20 in PBS and are incubated with Alexa Fluor® 488 Goat anti-mouse IgG (H+L) secondary antibody (Invitrogen, green fluorescence emission dye) for 1 hour at room temperature in a dark humidified chamber. […]
# human miRNA145 = test: miRNA145 inhibition on Human Keratinocyte HaCaT cell line, direct quantification by luminescence; assay type: cell-based; settings: HaCaT cells, 0.3 mg/ml, 24 hours, normalized with Snord48; mean of 3 experiments for DD14024, one experiment for the others
# Method: The synthetic peptide candidates are evaluated for the inhibition of human miRNA145 expression level using a direct miRNA145 quantification assay based on luminescence detection in a Human Keratinocyte HaCaT cell line.
# HaCat cells (Deutsches Krebsforschungszentrum) are seeded at 3.0×10^4 cells/well in 96-clear wells plates and incubated in a culture medium [(DMEM High Glucose with L-Glutamine (Lonza), supplemented with 10% Fetal Bovine Serum (Cultek)] for 24 hours at 37° C. in a water-saturated atmosphere of 95% air and 5% CO2. Then, the cells with the candidates added at 0.3 mg/ml in the culture medium are treated for 24 hours at 37° C., 95% air and 5% CO2. Cells with culture medium only are treated to the same conditions to provide basal conditions. Each cell culture condition is assayed at least in 6 biological replicates. At the end of the incubation period, the cells are lysed and the relative miRNA145 expression level is quantified by a specific assay kit (QuantiGene™ 2.0 miRNA Assay Kit) following manufacturer's instructions (Affymetrix). Briefly, to capture miRNA145, culture lysates are incubated overnight at 46±1° C. in 96-white well plates with the miRNA145 specific probe set (Capture extenders and Label extenders). As an endogenous expression control, the housekeeping Snord48 is quantified using a specific probe set. Next day, the signal amplification tree is built via sequential hybridization at 46±1° C. of three probes: PreAmplifier, Amplifier and Alkaline Phosphatase Label Probe. Then, the signal is detected by adding a chemiluminescent substrate and using a Microplate Luminometer Reader (Clariostar-BMG LabTech).
# The miRNA145 expression level result is normalized with the Snord48 expression level for each cell culture condition and the relative decrease in the miRNA145 expression level is calculated respect to basal control (cells treated with culture medium only). The values represent the mean of 3 independent experiments for DD14024, and for the other candidates, represent the result of one experiment.
substance,measurement,setting,value
"Ac-QEMRMQ-OH [DD14024, Ac-Gln-Glu-Met-Arg-Met-Gln-OH]",Fold induction respect to basal conditions (%),Keratin 10,28.70%
same,Relative level of miRNA145 respect to basal control (%),human miRNA145,85.06 ± 6.35%
